Consider 60 molecules from PubChem BioAssay AID489040 (Sanford-Burnham Center for Chemical Genomics, 2010).

pEC50: −log10 of the molar value. Calls of active or inactive are those of the source.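 The calls were made as follows: active = mean half-maximal activating concentration from the dose-response fit at or below a set limit; inactive = the rest.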

In the assay the target is CHO-XBP1 luciferase reporter, IRE1-XBP1 UPR activation. The experiment in a line: activators of IRE1-XBP1 UPR arm, dose response, counter-screen for apoptotic UPR arm activators, CHO-XBP1 cells, luminescence (AID 489040).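 Also: reporter read after six hours of compound exposure.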 On the technique in general: The purpose of a counterscreen is to sort out artefacts and off-target activity.
For `CC(C)CNC(=O)c1coc(=O)c(Br)c1`, the EC50 is > 80 µM (inactive).
With `Cc1ccc(-c2cc(NC(=O)CCl)n(-c3ccccc3)n2)cc1`, the EC50 was > 80 µM (inactive).
Turning to `Cc1cccc(CS(=O)(=O)c2ncc(Cl)c(C(=O)Nc3ccc(F)cc3)n2)c1`, the EC50 was > 80 µM (inactive).
Same read-out and setting: the result for `COc1ccc(C(=O)N/N=C(\C)c2ccccn2)cc1OC` reads > 80 µM (inactive); that for `COc1ccc(N2C(=O)/C(=C/c3cccs3)C(=O)NC2=S)cc1`, > 80 µM (inactive).
Turning to `COc1ccc(Cn2c(SCc3ccc(C)cc3)nc3cc(OC)c(OC)cc3c2=N)cc1Cl`, the EC50 was > 80 µM (inactive).
For `O=C(CCN1C(=O)C2C3C=CC(C4CC34)C2C1=O)Oc1cccc2cccnc12` (stereo not given), the EC50 was > 80 µM (inactive).
For the molecule `O=C(C=C=Nc1ccccc1)C(=O)N=C=Cc1ccccc1`, the EC50 was > 80 µM (inactive).
As to `COc1ccc(NC(=O)c2nc(S(=O)(=O)Cc3cccc(C)c3)ncc2Cl)c(OC)c1`, the EC50 is > 80 µM (inactive).
With `Cc1nn(-c2ccccc2)c(C)c1/C=N/NC(=O)CSc1nc2ccccc2c(=O)n1-c1ccc(Br)cc1`, the pEC50 is 5.04.
On to `CCOC(=O)/C(=C\c1cccc(O)c1)c1nc2sc(C)c(C)c2c(=O)[nH]1`, for which the EC50 is > 80 µM (inactive).
Still for that read-out and setting: as for `COc1cc(/C=C2\COC/C(=C\c3ccc(O)c(OC)c3)C2=O)ccc1O`, the figure is > 80 µM (inactive); as for `Cc1ccc(Sc2c([N+](=O)[O-])c(=O)n(C)c3ccccc23)cc1`, > 80 µM (inactive); as for `NC(N)=N/N=C/c1ccc(N(c2ccccc2)c2ccccc2)cc1`, > 80 µM (inactive).
Consider `COc1ccc2[nH]cc(C(=O)CCl)c2c1`, for which the EC50 is > 80 µM (inactive).
In the case of `O=C1NC(=O)N(CCc2ccc(F)cc2)C(=O)/C1=C/C=C/c1ccccc1`, the EC50 is > 80 µM (inactive).
Turning to `CC(=O)/C(=C/c1ccccc1)C(=O)Nc1ccccc1C`, the EC50 is > 80 µM (inactive).
With `Nc1c(C(=O)Nc2ccc(S(=O)(=O)N3CCCC3)cc2)sc2nc3ccc(OC(F)(F)F)cc3cc12`, the EC50 was > 80 µM (inactive).
On the same count and under the same terms, the result for `CCCCCCCCCn1c2c(c(=N)c3c1CCC3)CCCC2` reads “inactive”.
For the molecule `O=C(N/N=C(\c1ccccc1)c1cccnc1)c1cccc(F)c1`, the EC50 is > 80 µM (inactive).
`COc1cccc(-n2c(SCC(=O)N3CCc4ccccc43)nnc2-c2c[nH]c3ccccc23)c1`: the EC50 result is “inactive”.
For `COc1cc(SC#N)ccc1N=Cc1c(C)[nH]n(-c2ccc(C)c(C)c2)c1=O`, the EC50 was > 80 µM (inactive).
As to `Cc1cc(C(=O)CCl)c(C)n1-c1cccc(S(=O)(=O)N2CCOCC2)c1`, the EC50 is > 80 µM (inactive).
Same read-out and setting: the result for `Cc1ccc(S(=O)(=O)N(C(=O)c2ccncc2)c2ccc(OC(=O)c3ccncc3)c3ccccc23)c(C)c1` reads > 80 µM (inactive).
Take `Cc1cc(NC(=O)CCS(=O)(=O)c2nc(-c3ccccc3)cc(C(F)(F)F)n2)no1`: the EC50 was > 80 µM (inactive).
Same read-out and setting: the result for `CN(C)S(=O)(=O)c1cccc(NC(=O)CSc2cccc3cccnc23)c1` reads > 80 µM (inactive); that for `O=[N+]([O-])c1ccc(C=Nc2ccc(Cl)c([N+](=O)[O-])c2)s1`, > 80 µM (inactive).
Take `Cc1cc(C)nc(S/C=C/C(=O)c2ccccc2)n1`: the EC50 is > 80 µM (inactive).
For `CN(/N=C\c1ccc(O)c(O)c1)c1nc(-c2ccccc2)cc(-c2ccccc2)n1`, the pEC50 is 5.30.
Take `CCOC(=O)c1cnc(-n2nc(C)cc2C)nc1Nc1ccc(N(C)C)cc1`: the EC50 is > 80 µM (inactive).
Regarding `COc1cc(C(Nc2ccccn2)c2ccc3ccc(C)nc3c2O)cc(OC)c1O` (stereo not given), the EC50 is > 80 µM (inactive).
As for `COc1ccc(-c2cc(=O)oc3c(C)c(OC(=O)c4cccs4)ccc23)cc1`, the EC50 is > 80 µM (inactive).
With `O=C(Nc1nc(-c2ccc(F)c(F)c2)cs1)Nc1ccc(F)cc1F`, the EC50 was > 80 µM (inactive).
In the case of `N#CC(C#N)=C1C=CC=CN1/C(=C\c1ccccc1)C(=O)c1cccs1`, the EC50 was > 80 µM (inactive).
Consider `Cc1cc(-n2c(C)cc(C(=O)CCl)c2C)no1`, for which the EC50 was > 80 µM (inactive).
In the case of `O=C(Nc1ccc(O)c2c(=O)cc(-c3cccc(Cl)c3)oc12)c1ccccc1Cl`, the EC50 is > 80 µM (inactive).
Take `C/C(=N\NC(=O)c1cccc2ccccc12)c1ccccn1`: the EC50 was > 80 µM (inactive).
The same measure, in the same setting: the result for `Cc1ccc2c(C(=O)CCl)c(C)[nH]c2c1` reads > 80 µM (inactive).
On to `CCOC(=O)C(=Cc1ccc(F)cc1)C(=O)OCC`, for which the EC50 was > 80 µM (inactive).
The same measure, in the same setting: as for `O=C(CCl)Nc1ccc(-c2ccccc2)cc1`, the figure is > 80 µM (inactive).
As to `Cn1c(-c2cccc(OCc3ccccc3)c2)nc2c1c(=O)[nH]c(=O)n2Cc1ccccc1`, the EC50 was > 80 µM (inactive).
For `CCOc1cc(/C=C2\CN(CC)C/C(=C\c3ccc(O)c(OCC)c3)C2=O)ccc1O`, the EC50 was > 80 µM (inactive).
As to `CCCCCC(=O)Nc1ccc(C(=O)N/N=C/c2ccc([N+](=O)[O-])cc2)cc1`, the EC50 is > 80 µM (inactive).
As to `O=C(Nc1nc(-c2ccccn2)cs1)c1ccc(Cl)s1`, the EC50 result is “inactive”.
For the molecule `CCc1cccc2c(C(=O)CCl)c[nH]c12`, the EC50 was > 80 µM (inactive).
With `C/C(CCC12CC3CC(CC(C3)C1)C2)=N\NC(N)=S`, the EC50 is > 80 µM (inactive).
`Nc1cccc(-c2nc3cc(S(=O)(=O)c4ccc5oc(-c6cccc(N)c6)nc5c4)ccc3o2)c1`: the EC50 was > 80 µM (inactive).
`CC(C)(C)C(=O)N1CCN(c2ccc(NC(=O)c3ccc([N+](=O)[O-])o3)cc2)CC1`: the EC50 is > 80 µM (inactive).
In the case of `COc1ccc(C(=O)C(CN2CCCC2)c2ccccc2)cc1` (stereo not given), the EC50 is > 80 µM (inactive).
As to `CCCC[C@@H](C)C[C@@H](C)C(=O)N(C)[C@@H](CC(C)C)C(=O)N[C@H](C(=O)N(C)[C@H](C(=O)N1C[C@@H](O)C[C@H]1C(=O)N1C(=O)C=C[C@@H]1C)C(C)C)C(C)OC(C)=O` (stereo not given in full), the pEC50 is 4.81.
Consider `Nc1nc(CC(=O)CSc2ccc(Cl)cc2)nc(Nc2ccc(F)cc2)n1`, for which the EC50 is > 80 µM (inactive).
On to `Cc1ccc(/C=C2\CCC3=C2OC(N)=C(C#N)C3c2ccc(C)cc2)cc1` (stereo not given), for which the EC50 was > 80 µM (inactive).
Turning to `COc1ccc(C(c2c(C)[nH]n(C(N)=S)c2=O)C(C#N)C#N)cc1` (stereo not given), the EC50 was > 80 µM (inactive).
`CCNc1ccccc1CP(=O)(c1ccccc1)c1ccccc1O` (stereo not given): the EC50 is > 80 µM (inactive).
On to `O=S1(=O)Nc2c(ccc3cccnc23)-c2ccccc21`, for which the EC50 was > 80 µM (inactive).
`COc1ccc(/C=C/C(=O)c2ccc(C(=O)/C=C/c3ccc(OC)c(OC)c3)cc2)cc1OC`: the EC50 is > 80 µM (inactive).
Regarding `COc1ccccc1C(=O)NC(=S)NNC(=O)c1sc2ccccc2c1Cl`, the EC50 entry is “inactive”.
On to `O=C1NC(=O)N(c2ccccc2)C(=O)/C1=C/C=C/c1ccco1`, for which the EC50 was > 80 µM (inactive).
As to `Cc1cccc2sc(NC(=O)c3cc(S(=O)(=O)N(C)C)ccc3N3CCCC3)nc12`, the pEC50 was 5.28.
For `Cc1cccc(-n2c(/C=C/c3ccc([N+](=O)[O-])o3)nc3ccccc3c2=O)c1`, the EC50 was > 80 µM (inactive).

The EC50 is the concentration giving half of the maximal effect. A word on the pEC50: it is the negative decadic logarithm of the EC50, by convention in mol/L.
